pIC50: −log10 of the molar value. Active and inactive are the calls of the source. The calls are words filed in the database; no cut-off is given here.
Experiments:
L02 = assay: Cytotoxicity against human L02 cells assessed as inhibition of cell proliferation measured after 72 hrs by MTT assay; type: cell-based; conditions: L02, 72 h
Homo sapiens [1] = species on record: Homo sapiens; assay: Selectivity ratio of IC50 for wild type EGFR (unknown origin) to IC50 for EGFR T790M mutant (unknown origin) measured by mobility shift assay
NCI-H1975 [2] = assay: Antiproliferative activity against human NCI-H1975 cells harboring EGFR T790M/L858R double mutant assessed as inhibition of cell viability at 1 uM measured after 72 hrs by MTT assay; type: functional
MCF7 = assay: Antiproliferative activity against human MCF7 cells assessed as inhibition of cell proliferation measured after 72 hrs by MTT assay; type: functional, cell-based; conditions: MCF7, 72 h
A-431 [3] = assay: Induction of apoptosis in human A-431 cells assessed as necrotic cells at 0.2 uM measured after 48 hrs by Annexin V-FITC staining based flow cytometry (reference value: 0.21%); type: functional
A-431 [4] = assay: Induction of apoptosis in human A-431 cells assessed as late apoptotic cells at 8 uM measured after 48 hrs by Annexin V-FITC staining based flow cytometry (reference value: 2.02%); type: functional
[5] = molecular target: T1, Epidermal growth factor receptor (Homo sapiens, UniProt P00533); assay: Inhibition of wild type EGFR (unknown origin) using FAM-labelled peptide as substrate at 1 uM incubated for 10 mins in presence of ATP measured by mobility shift assay
T1 sequence (P00533 whole entry): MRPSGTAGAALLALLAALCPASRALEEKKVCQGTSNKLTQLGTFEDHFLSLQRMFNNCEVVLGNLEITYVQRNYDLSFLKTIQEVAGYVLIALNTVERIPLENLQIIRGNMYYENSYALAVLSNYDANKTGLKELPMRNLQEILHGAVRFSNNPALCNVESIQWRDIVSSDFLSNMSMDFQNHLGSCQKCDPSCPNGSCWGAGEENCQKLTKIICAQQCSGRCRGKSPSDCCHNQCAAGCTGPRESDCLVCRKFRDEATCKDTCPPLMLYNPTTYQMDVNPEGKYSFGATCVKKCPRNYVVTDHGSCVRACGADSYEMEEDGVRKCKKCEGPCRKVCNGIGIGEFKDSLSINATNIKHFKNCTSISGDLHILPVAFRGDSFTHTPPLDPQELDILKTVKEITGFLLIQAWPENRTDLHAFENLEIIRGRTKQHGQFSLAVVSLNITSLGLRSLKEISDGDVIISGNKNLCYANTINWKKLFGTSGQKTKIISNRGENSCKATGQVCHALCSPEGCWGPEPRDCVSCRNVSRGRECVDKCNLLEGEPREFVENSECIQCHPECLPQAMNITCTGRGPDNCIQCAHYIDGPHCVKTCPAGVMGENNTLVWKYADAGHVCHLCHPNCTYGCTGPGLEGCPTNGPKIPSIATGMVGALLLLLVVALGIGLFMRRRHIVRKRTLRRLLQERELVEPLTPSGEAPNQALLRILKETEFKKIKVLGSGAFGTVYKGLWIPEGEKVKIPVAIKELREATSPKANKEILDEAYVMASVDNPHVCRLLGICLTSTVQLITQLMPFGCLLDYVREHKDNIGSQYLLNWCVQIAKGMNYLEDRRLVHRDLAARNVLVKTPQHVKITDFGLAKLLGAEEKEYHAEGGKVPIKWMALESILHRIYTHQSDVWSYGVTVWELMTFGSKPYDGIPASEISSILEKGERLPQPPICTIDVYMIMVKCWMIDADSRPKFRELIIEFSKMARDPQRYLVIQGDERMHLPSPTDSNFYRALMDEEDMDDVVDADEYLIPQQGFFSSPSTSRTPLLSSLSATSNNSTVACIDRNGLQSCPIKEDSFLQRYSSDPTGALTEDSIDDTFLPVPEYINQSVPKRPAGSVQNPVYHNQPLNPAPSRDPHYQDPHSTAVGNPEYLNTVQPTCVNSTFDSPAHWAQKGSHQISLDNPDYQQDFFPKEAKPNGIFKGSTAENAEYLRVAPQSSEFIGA

A-431 [6] = assay: Induction of apoptosis in human A-431 cells assessed as late apoptotic cells at 4 uM measured after 48 hrs by Annexin V-FITC staining based flow cytometry (reference value: 2.02%); type: functional
A-431 [7] = assay: Induction of apoptosis in human A-431 cells assessed as late apoptotic cells at 0.2 uM measured after 48 hrs by Annexin V-FITC staining based flow cytometry (reference value: 2.02%); type: functional
A-431 [8] = assay: Induction of apoptosis in human A-431 cells assessed as necrotic cells at 4 uM measured after 48 hrs by Annexin V-FITC staining based flow cytometry (reference value: 0.21%); type: functional
A-431 [9] = assay: Induction of apoptosis in human A-431 cells assessed as early apoptotic cells at 8 uM measured after 48 hrs by Annexin V-FITC staining based flow cytometry (reference value: 2.1%); type: functional
[10] = molecular target: Serine/threonine-protein kinase mTOR (Homo sapiens) (UniProt P42345); assay: Inhibition of mTOR (unknown origin) using FAM-labelled peptide as substrate at 1 uM incubated for 10 mins in presence of ATP measured by mobility shift assay
A-431 [11] = assay: Antiproliferative activity against human A-431 cells assessed as inhibition of cell proliferation measured after 72 hrs by MTT assay; type: functional, cell-based; conditions: A-431, 72 h
A-431 [12] = assay: Induction of apoptosis in human A-431 cells assessed as viable cells at 8 uM measured after 48 hrs by Annexin V-FITC staining based flow cytometry (reference value: 95.67%); type: functional; conditions: read-out: Activity
[13] = Inhibition of EGFR T790M mutant (unknown origin) using FAM-labelled peptide as substrate incubated for 10 mins in presence of ATP measured by mobility shift assay; parameters: species or system Homo sapiens
NCI-H1975 [14] = assay: Antiproliferative activity against human NCI-H1975 cells harboring EGFR T790M/L858R double mutant assessed as inhibition of cell viability at 10 uM measured after 72 hrs by MTT assay; type: functional
A-431 [15] = assay: Induction of cell morphological changes in human A-431 cells assessed as chromatin contraction with sharp cell edge at 0.33 uM measured after 6 hrs by Acridine orange staining based fluorescence microscopy; type: functional
A-431 [16] = assay: Induction of apoptosis in human A-431 cells assessed as viable cells at 4 uM measured after 48 hrs by Annexin V-FITC staining based flow cytometry (reference value: 95.67%); type: functional; conditions: read-out: Activity
A-431 [17] = assay: Induction of apoptosis in human A-431 cells assessed as early apoptotic cells at 0.2 uM measured after 48 hrs by Annexin V-FITC staining based flow cytometry (reference value: 2.1%); type: functional
HeLa = assay: Antiproliferative activity against human HeLa cells assessed as inhibition of cell proliferation measured after 72 hrs by MTT assay; type: functional, cell-based
[18] = molecular target: T1, Epidermal growth factor receptor; assay: Inhibition of wild type EGFR (unknown origin) using FAM-labelled peptide as substrate incubated for 10 mins in presence of ATP measured by mobility shift assay
Homo sapiens [19] = species on record: Homo sapiens; assay: Inhibition of EGFR T790M mutant (unknown origin) using FAM-labelled peptide as substrate at 1 uM incubated for 10 mins in presence of ATP measured by mobility shift assay
A549 = assay: Antiproliferative activity against human A549 cells assessed as inhibition of cell proliferation measured after 72 hrs by MTT assay; type: functional, cell-based; conditions: A549, 72 h
[20] = Inhibition of EGFR T790M/L858R double mutant (unknown origin) using FAM-labelled peptide as substrate incubated for 10 mins in presence of ATP measured by mobility shift assay; parameters: species or system Homo sapiens
A-431 [21] = assay: Induction of apoptosis in human A-431 cells assessed as viable cells at 0.2 uM measured after 48 hrs by Annexin V-FITC staining based flow cytometry (reference value: 95.67%); type: functional; conditions: read-out: Activity
Homo sapiens [22] = species on record: Homo sapiens; assay: Selectivity ratio of IC50 for wild type EGFR (unknown origin) to IC50 for EGFR T790M/L858R double mutant (unknown origin) measured by mobility shift assay
A-431 [23] = assay: Induction of apoptosis in human A-431 cells assessed as necrotic cells at 8 uM measured after 48 hrs by Annexin V-FITC staining based flow cytometry (reference value: 0.21%); type: functional
NCI-H1975 [24] = assay: Antiproliferative activity against human NCI-H1975 cells harboring EGFR T790M/L858R double mutant assessed as inhibition of cell viability measured after 72 hrs by MTT assay; type: functional, cell-based; conditions: NCI-H1975, 72 h
A-431 [25] = assay: Antiproliferative activity against human A-431 cells assessed as inhibition of cell proliferation at 0.33 uM measured after 6 hrs by Acridine orange staining based fluorescence microscopy; type: functional
Homo sapiens [26] = species on record: Homo sapiens; assay: Inhibition of PI3K (unknown origin) using FAM-labelled peptide as substrate at 1 uM incubated for 10 mins in presence of ATP measured by mobility shift assay
A-431 [27] = assay: Induction of apoptosis in human A-431 cells assessed as early apoptotic cells at 4 uM measured after 48 hrs by Annexin V-FITC staining based flow cytometry (reference value: 2.1%); type: functional
Homo sapiens [28] = species on record: Homo sapiens; assay: Inhibition of EGFR T790M/L858R double mutant (unknown origin) using FAM-labelled peptide as substrate at 1 uM incubated for 10 mins in presence of ATP measured by mobility shift assay
[29] = molecular target: Vascular endothelial growth factor receptor 2 (Homo sapiens) (UniProt P35968); assay: Inhibition of KDR (unknown origin) using FAM-labelled peptide as substrate at 1 uM incubated for 10 mins in presence of ATP measured by mobility shift assay
Sequence of Vascular endothelial growth factor receptor 2 (Homo sapiens) (P35968 whole entry): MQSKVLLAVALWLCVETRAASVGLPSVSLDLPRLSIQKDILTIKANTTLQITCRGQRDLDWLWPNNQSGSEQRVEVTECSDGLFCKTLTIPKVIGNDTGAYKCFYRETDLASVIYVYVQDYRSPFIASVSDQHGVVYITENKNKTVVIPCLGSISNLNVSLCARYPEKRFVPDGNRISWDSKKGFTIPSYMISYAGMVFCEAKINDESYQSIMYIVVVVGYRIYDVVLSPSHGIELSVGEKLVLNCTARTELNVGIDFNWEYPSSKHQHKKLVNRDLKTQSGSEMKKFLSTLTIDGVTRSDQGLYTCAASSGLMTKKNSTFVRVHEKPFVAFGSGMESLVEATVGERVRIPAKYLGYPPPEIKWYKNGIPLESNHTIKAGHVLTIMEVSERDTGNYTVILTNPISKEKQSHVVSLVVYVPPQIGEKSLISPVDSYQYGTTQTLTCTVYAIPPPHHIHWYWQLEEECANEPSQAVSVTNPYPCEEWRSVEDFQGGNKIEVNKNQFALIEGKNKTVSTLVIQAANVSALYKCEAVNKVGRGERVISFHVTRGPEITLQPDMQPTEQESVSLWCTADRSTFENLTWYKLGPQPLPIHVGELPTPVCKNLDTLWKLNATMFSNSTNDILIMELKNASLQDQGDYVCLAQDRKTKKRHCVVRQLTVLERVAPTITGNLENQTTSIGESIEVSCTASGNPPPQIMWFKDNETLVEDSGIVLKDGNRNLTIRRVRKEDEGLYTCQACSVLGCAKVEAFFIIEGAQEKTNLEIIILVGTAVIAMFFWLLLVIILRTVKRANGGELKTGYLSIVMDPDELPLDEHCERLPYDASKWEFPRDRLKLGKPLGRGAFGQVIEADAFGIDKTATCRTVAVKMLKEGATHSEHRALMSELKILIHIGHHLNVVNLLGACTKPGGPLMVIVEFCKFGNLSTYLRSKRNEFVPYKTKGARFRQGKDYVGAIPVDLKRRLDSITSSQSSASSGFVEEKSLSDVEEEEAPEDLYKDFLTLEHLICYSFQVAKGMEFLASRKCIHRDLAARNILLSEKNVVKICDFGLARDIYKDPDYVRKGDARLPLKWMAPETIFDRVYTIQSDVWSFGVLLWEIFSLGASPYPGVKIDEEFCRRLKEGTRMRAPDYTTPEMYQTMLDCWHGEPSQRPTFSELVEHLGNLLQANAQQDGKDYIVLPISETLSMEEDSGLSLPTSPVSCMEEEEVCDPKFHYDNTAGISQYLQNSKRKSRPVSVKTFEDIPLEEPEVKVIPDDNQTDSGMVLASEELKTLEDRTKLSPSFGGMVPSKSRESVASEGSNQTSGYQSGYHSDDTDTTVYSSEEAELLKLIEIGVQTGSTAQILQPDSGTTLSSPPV

[30] = molecular target: Hepatocyte growth factor receptor (Homo sapiens) (UniProt P08581); assay: Inhibition of c-MET (unknown origin) using FAM-labelled peptide as substrate at 1 uM incubated for 10 mins in presence of ATP measured by mobility shift assay
Sequence of Hepatocyte growth factor receptor (Homo sapiens) (P08581 whole entry): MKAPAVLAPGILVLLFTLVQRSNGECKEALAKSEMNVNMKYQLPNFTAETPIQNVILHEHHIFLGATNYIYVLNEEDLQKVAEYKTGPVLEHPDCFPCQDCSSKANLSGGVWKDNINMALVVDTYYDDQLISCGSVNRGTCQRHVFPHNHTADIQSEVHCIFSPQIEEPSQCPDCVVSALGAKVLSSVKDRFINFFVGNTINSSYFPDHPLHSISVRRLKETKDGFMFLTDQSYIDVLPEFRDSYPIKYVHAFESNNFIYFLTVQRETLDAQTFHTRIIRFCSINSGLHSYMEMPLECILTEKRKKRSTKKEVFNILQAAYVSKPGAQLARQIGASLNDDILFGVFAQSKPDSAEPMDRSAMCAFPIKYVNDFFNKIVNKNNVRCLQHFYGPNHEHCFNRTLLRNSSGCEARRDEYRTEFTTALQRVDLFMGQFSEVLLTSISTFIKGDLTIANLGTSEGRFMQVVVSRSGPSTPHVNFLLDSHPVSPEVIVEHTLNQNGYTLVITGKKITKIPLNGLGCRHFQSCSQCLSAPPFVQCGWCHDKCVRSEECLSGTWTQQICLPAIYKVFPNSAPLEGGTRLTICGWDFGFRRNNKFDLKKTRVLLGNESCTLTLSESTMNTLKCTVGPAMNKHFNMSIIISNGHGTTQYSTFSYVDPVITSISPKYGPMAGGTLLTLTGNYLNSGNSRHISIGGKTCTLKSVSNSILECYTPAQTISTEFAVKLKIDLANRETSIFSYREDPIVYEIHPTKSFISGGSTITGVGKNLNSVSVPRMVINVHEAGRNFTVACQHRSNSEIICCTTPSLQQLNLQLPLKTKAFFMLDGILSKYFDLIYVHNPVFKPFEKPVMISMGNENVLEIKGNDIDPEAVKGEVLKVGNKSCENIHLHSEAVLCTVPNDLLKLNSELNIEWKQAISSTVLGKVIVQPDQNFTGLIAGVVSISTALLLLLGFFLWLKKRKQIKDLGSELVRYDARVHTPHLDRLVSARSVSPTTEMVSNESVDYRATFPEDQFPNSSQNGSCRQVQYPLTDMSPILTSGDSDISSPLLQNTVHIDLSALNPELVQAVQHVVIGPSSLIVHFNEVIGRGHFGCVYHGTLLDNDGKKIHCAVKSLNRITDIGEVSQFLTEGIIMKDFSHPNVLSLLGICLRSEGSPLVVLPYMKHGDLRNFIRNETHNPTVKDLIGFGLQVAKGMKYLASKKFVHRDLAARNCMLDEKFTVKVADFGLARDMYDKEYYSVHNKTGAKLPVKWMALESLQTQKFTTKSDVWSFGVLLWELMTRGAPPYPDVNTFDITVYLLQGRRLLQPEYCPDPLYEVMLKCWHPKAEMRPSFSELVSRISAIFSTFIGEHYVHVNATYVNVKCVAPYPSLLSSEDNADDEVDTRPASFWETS

Selectivity ratio (Homo sapiens [1]): > 15
pIC50 (MCF7): 4.72
inhibition [5]: 23.5%
inhibition [10]: 9.3%
pIC50 (A-431 [11]): 5.42
pIC50 [13]: 7.19
pIC50 (HeLa): 5.19
pIC50 [18]: < 6.00
inhibition (Homo sapiens [19]): 95.9%
pIC50 (A549): 5.36
pIC50 [20]: 7.87
Selectivity ratio (Homo sapiens [22]): > 73
pIC50 (NCI-H1975 [24]): 6.16
inhibition (Homo sapiens [26]): 31.5%
inhibition (Homo sapiens [28]): 104%
inhibition [29]: 1.1%
inhibition [30]: 6%
SMILES: C=CC(=O)Nc1cccc(Oc2nc(Nc3cccc(C#N)c3)nc3ccsc23)c1
pIC50 (L02): < 4.30
inhibition at 1 µM (NCI-H1975 [2]): 44.3%
Activity (A-431 [3]): 0.63%
Activity (A-431 [4]): 17.17%
Activity (A-431 [6]): 16.41%
Activity (A-431 [7]): 12.66%
Activity (A-431 [8]): 1.33%
Activity (A-431 [9]): 3.54%
viability at 8 µM (A-431 [12]): 78.3%
inhibition at 10 µM (NCI-H1975 [14]): 79.5%
Activity (A-431 [15]): Active
viability at 4 µM (A-431 [16]): 77.4%
Activity (A-431 [17]): 3.29%
viability at 0.2 µM (A-431 [21]): 83.4%
Activity (A-431 [23]): 0.97%
Activity (A-431 [25]): Active
Activity (A-431 [27]): 4.87%

— ChEMBL document CHEMBL4706512, “Design, synthesis and antitumor activity of novel thiophene-pyrimidine derivatives as EGFR inhibitors overcoming T790M and L858R/T790M mutations” (Eur J Med Chem, 2020)
